According to US8445674B2, “Heterocyclyl compounds” (Hoffmann-La Roche Inc, priority 2009, dated 2013):

The compounds below were run against T1, human chemokine receptor 2 isoform B (Homo sapiens, UniProt P41597) (assay: Calcium mobilization assay (FLIPR, antagonist activity against MCP-1)). Conditions: Ca mobilisation assay, CHOK1-CCR2B-A5 cells, inhibition of calcium increase induced by 20 nM MCP-1.
T1 construct: host or cells: CHOK1-CCR2B-A5 cells (CHO-K1)
T1 sequence (P41597 1-360 isoform P41597-2): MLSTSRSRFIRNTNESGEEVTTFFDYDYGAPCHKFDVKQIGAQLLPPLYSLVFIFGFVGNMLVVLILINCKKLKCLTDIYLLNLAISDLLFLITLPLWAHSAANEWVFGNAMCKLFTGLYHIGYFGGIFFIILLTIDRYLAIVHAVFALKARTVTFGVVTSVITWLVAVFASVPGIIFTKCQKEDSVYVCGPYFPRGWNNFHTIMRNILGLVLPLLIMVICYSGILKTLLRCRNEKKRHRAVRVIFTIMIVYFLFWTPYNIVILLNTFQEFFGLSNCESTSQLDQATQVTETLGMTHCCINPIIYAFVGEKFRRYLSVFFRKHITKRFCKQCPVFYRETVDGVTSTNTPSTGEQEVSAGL
Type: cell-based
How it was run: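 CHOK1 cells stably overexpressing human CCR2B, loaded with 4 μM Fluo-4 for 2 h at 30° C, compounds added and agonist signal read by FLIPR for 80 s. After 20-30 min at 30° C, 20 nM MCP-1 was added and fluorescence read again. IC50 is 50% inhibition of specific calcium increase (max minus basal).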

IC50 [nM]	SMILES
2350	COC(=O)C(CC(=O)N1C[C@@H](C)C[C@H](O)C1)N1CCN(C(=O)/C=C/c2ccc(Cl)c(Cl)c2)CCC1=O (stereo partly drawn) [Example 9, (R,S)-2-{4-[(E)-3-(3,4-Dichloro-phenyl)-acryloyl]-7-oxo-[1,4]diazepan-1-yl}-4-((3S,5S)-3-hydroxy-5-methyl-piperidin-1-yl)-4-oxo-butyric acid methyl ester]
2570	C[C@H]1C(=O)N([C@H](CO)CCC(=O)N2CCC3(CC3)[C@H](O)C2)CCN1C(=O)N(C)c1ccc(OC(F)(F)F)c(Cl)c1 [Example 57, (S)-4-[(S)-4-((S)-4-Hydroxy-6-aza-spiro[2.5]oct-6-yl)-1-hydroxymethyl-4-oxo-butyl]-2-methyl-3-oxo-piperazine-1-carboxylic acid (3-chloro-4-trifluoromethoxy-phenyl)-methyl-amide]
13.1	C[C@H]1C(=O)N(C[C@@H](O)CC(=O)N2CCC3(CC3)[C@H](O)C2)CCN1c1ccc(C(F)(F)F)c(Cl)c1 [Example 131, (S)-4-(3-Chloro-4-trifluoromethyl-phenyl)-1-[(S)-2-hydroxy-4-((S)-4-hydroxy-6-aza-spiro[2.5]oct-6-yl)-4-oxo-butyl]-3-methyl-piperazin-2-one]
1820	O=C1CCCN(C(=O)CCN2CCN(C(=O)/C=C/c3ccc(Cl)c(Cl)c3)CCC2=O)C1 [Example 79, 1-[(E)-3-(3,4-Dichloro-phenyl)-acryloyl]-4-[3-oxo-3-(3-oxo-piperidin-1-yl)-propyl]-[1,4]diazepan-5-one]
1750	COC(=O)NC1CCN(C(=O)CCN2CCN(C(=O)/C=C/c3ccc(Cl)c(Cl)c3)CCC2=O)CC1 [Example 88, [1-(3-{4-[(E)-3-(3,4-Dichloro-phenyl)-acryloyl]-7-oxo-[1,4]diazepan-1-yl}-propionyl)-piperidin-4-yl]-carbamic acid methyl ester]
3860	C[C@H]1C(=O)N(CCC(=O)N2CC[C@H](F)[C@@H](O)C2)CCN1C(=O)Nc1ccc(Cl)c(Cl)c1 (mixture of isomers) [Example 23, (S)-4-[3-((3SR,4SR)-4-Fluoro-3-hydroxy-piperidin-1-yl)-3-oxo-propyl]-2-methyl-3-oxo-piperazine-1-carboxylic acid (3,4-dichloro-phenyl)-amide]
337	CC1(CO)CCN(C(=O)CCN2CCN(C(=O)/C=C/c3ccc(Cl)c(Cl)c3)CCC2=O)CC1 [Example 87, 1-[(E)-3-(3,4-Dichloro-phenyl)-acryloyl]-4-[3-(4-hydroxymethyl-4-methyl-piperidin-1-yl)-3-oxo-propyl]-[1,4]diazepan-5-one]
1600	O=C(/C=C/c1ccc(Cl)c(Cl)c1)N1CCC(=O)N(CCC(=O)N2CCCCC2CO)CC1 (racemic) [Example 67, (rac)-1-[(E)-3-(3,4-Dichloro-phenyl)-acryloyl]-4-[3-(2-hydroxymethyl-piperidin-1-yl)-3-oxo-propyl]-[1,4]diazepan-5-one]
51.7	O=C1CCN(C(=O)Nc2ccc(Cl)c(C(F)(F)F)c2)CCN1CCCC(=O)N1CCC2(CC2)[C@H](O)C1 [Example 118, 4-[4-((S)-4-Hydroxy-6-aza-spiro[2.5]oct-6-yl)-4-oxo-butyl]-5-oxo-[1,4] diazepane-1-carboxylic acid (4-chloro-3-trifluoromethyl-phenyl)-amide]
3200	C[C@H]1C(=O)N(CCCC(=O)N2CCCC(O)C2)CCN1C(=O)Nc1cccc(Cl)c1 (mixture of isomers) [Example 112, (S)-4-[4-((RS)-3-Hydroxy-piperidin-1-yl)-4-oxo-butyl]-2-methyl-3-oxo-piperazine-1-carboxylic acid (3-chloro-phenyl)-amide]
1700	O=C(/C=C/c1ccc(Cl)c(Cl)c1)N1CCC(=O)N(CC(=O)N2CCC3(CCCO3)CC2)CC1 [Example 98, 1-[(E)-3-(3,4-Dichloro-phenyl)-acryloyl]-4-[2-(1-oxa-8-aza-spiro[4.5]dec-8-yl)-2-oxo-ethyl]-[1,4]diazepan-5-one]
54.9	C[C@H]1C(=O)N(CCCC(=O)N2CCC3(CC3)[C@H](O)C2)CCN1C(=O)Nc1cccc(C(F)(F)F)c1 [Example 28, (S)-4-[4-((S)-4-Hydroxy-6-aza-spiro[2.5]oct-6-yl)-4-oxo-butyl]-2-methyl-3-oxo-piperazine-1-carboxylic acid (3-trifluoromethyl-phenyl)-amide]
4.7	C[C@H]1C(=O)N(CCC(F)C(=O)N2CCC3(CC3)[C@H](O)C2)CCN1C(=O)Nc1ccc(C(F)(F)F)c(Cl)c1 (stereo partly drawn) [Example 136, (S)-4-[(R,S)-3-Fluoro-4-((S)-4-hydroxy-6-aza-spiro[2.5]oct-6-yl)-4-oxo-butyl]-2-methyl-3-oxo-piperazine-1-carboxylic acid (3-chloro-4-trifluoromethyl-phenyl)-amide]
5.8	C[C@H]1C(=O)N(C[C@H](O)CC(=O)N2CCC3(CC3)[C@H](O)C2)CCN1C(=O)Nc1ccc(C(F)(F)F)c(C(F)(F)F)c1 [Example 49, (S)-4-[(R)-2-hydroxy-4-((S)-4-hydroxy-6-aza-spiro[2.5]oct-6-yl)-4-oxo-butyl]-2-methyl-3-oxo-piperazine-1-carboxylic acid (3,4-bis-trifluoromethyl-phenyl)-amide]
2.2	C[C@H]1C(=O)N(CCCC(=O)N2CCC3(CC3)[C@H](O)C2)[C@H](C(N)=O)CN1C(=O)Nc1ccc(C(F)(F)F)c(C(F)(F)F)c1 [Example 149, (3S,6S)-4-[4-((S)-4-Hydroxy-6-aza-spiro[2.5]oct-6-yl)-4-oxo-butyl]-6-methyl-5-oxo-piperazine-1,3-dicarboxylic acid 3-amide 1-[(3,4-bis-trifluoromethyl-phenyl)-amide]]
2340	C[C@H]1C(=O)N(CCCC(=O)N2CCC3(CC2)COC3)CCN1C(=O)Nc1cccc(Cl)c1 [Example 36, (S)-2-Methyl-4-[4-(2-oxa-7-aza-spiro[3.5]non-7-yl)-4-oxo-butyl]-3-oxo-piperazine-1-carboxylic acid (3-chloro-phenyl)-amide]
1800	NC(=O)C1CCN(C(=O)CCN2CCN(C(=O)/C=C/c3ccc(Cl)c(Cl)c3)CCC2=O)CC1 [Example 94, 1-(3-{4-[(E)-3-(3,4-Dichloro-phenyl)-acryloyl]-7-oxo-[1,4]diazepan-1-yl}-propionyl)-piperidine-4-carboxylic acid amide]
191	COC(=O)[C@H](CCC(=O)N1CCC2(CC2)[C@H](O)C1)N1CC(C)N(c2ccc(C(F)(F)F)c(C(F)(F)F)c2)CCC1=O (stereo partly drawn) [Example 127, (S)-2-[(R,S)-4-(3,4-Bis-trifluoromethyl-phenyl)-3-methyl-7-oxo-[1,4]diazepan-1-yl]-5-((S)-4-hydroxy-6-aza-spiro[2.5]oct-6-yl)-5-oxo-pentanoic acid methyl ester]
1.4	C[C@H]1C(=O)N(CCC(F)C(=O)N2CCC3(CC3)[C@H](O)C2)CCN1C(=O)Nc1ccc(C(F)(F)F)c(Cl)c1 (single isomer, unassigned) [Example 138, (S)-4-[(S or R)-3-fluoro-4-((S)-4-hydroxy-6-aza-spiro[2.5]oct-6-yl)-4-oxo-butyl]-2-methyl-3-oxo-piperazine-1-carboxylic acid (3-chloro-4-trifluoromethyl-phenyl)-amide]
3250	CN1CCN(C(=O)CCN2CCN(C(=O)/C=C/c3ccc(Cl)c(Cl)c3)CCC2=O)CC1=O [Example 80, 1-[(E)-3-(3,4-Dichloro-phenyl)-acryloyl]-4-[3-(4-methyl-3-oxo-piperazin-1-yl)-3-oxo-propyl]-[1,4]diazepan-5-one]
